According to US9023882B2, “5-membered nitrogen containing heterocyclic derivatives and pharmaceutical compositions comprising the same” (Kissei Pharmaceutical Co., Ltd., priority 2007, dated 2015):

Assays:
[1] = target: Xanthine oxidase (from bovine milk, Sigma) (Bos taurus (Bovine), UniProt P80457); assay: Xanthine oxidase inhibitory activity; assay type: biochemical; details: absorbance at 290 nm
In short: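 Bovine milk enzyme at 0.02 units/mL in PBS was mixed with compound (DMSO stock diluted in PBS) and 200 μM xanthine stock, reacting 10 min at room temperature. Uric acid formation was read as absorbance at 290 nm; IC50 was derived with no-xanthine wells as 0% and no-compound control as 100%.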

[2] = tested on: BBMV from human kidney cortex; assay: Inhibitory activity of uric acid transport with brush-border membrane vesicles (BBMV); assay type: biochemical; details: test compound 100 μM; uptake of 14C-labeled uric acid into human kidney cortex BBMV
Protocol: Inhibitory activity of uric acid transport of test compounds was performed on the basis of methods described in a reference (Am. J. Physiol. 266 (Renal Fluid Electrolyte Physiol. 35): F797-F805, 1994) with a partial modification.
(1) Preparation of BBMV from Human Kidney Cortex
BBMV from human kidney cortex were purchased from KAC. Renal cortex was dissected from human kidney and cut into small pieces. Then, the cortex was homogenized in 5 volumes of ice-cold isotonic buffer (300 mM mannitol, 5 mM ethylene glycol-bis-(β-aminoethylether)-N,N,N′,N′-tetraacetic acid (EGTA), 12 mM tris(hydroxymethyl)aminomethane (Tris).HCl, pH 7.4). After adding 1 M magnesium chloride to a final concentration of 12 mM, and then the suspension was mixed and allowed to stand on ice for 15 minutes. The homogenized solution was centrifuged at 2,500×g for 15 minutes at 4° C., furthermore, the supernatant was centrifuged at 30,000×g for 30 minutes at 4° C. The pellet was resuspended in ice-cold buffer 1 (150 mM mannitol, 2.5 mM EGTA, 6 mM Tris.HCl, pH 7.4). After adding 1 M magnesium chloride to a final concentration of 12 mM, and then the suspension was mixed and allowed to stand on ice for 15 minutes. After centrifugation again at 2,500×g for 15 minutes at 4° C., furthermore, the supernatant was centrifuged at 30,000×g for 30 minutes at 4° C. The pellet was resuspended in ice-cold buffer 2 (100 mM mannitol, 100 mM potassium gluconate, 20 mM 2-[4-(2-hydroxyethyl)-1-piperazinyl]-ethanesulfonic acid (Hepes)-Tris, pH 7.4). After centrifugation at 30,000×g for 30 minutes at 4° C., the pellet was resuspended in buffer 2, and then the protein concentration was determined
(2) Preparation of Test Compounds […]
BBMV were thawed on ice. […] The uptake of uric acid into BBMV was measured by the rapid-filtration technique. […] Furthermore, filters were washed twice with 3 mL of stop solution and dissolved in 10 mL of Filter-Count (PerkinElmer), and the radioactivity was counted in a liquid scintillation counter (PerkinElmer). The radioactivity associated with the filters in the absence of BBMV was used as corrections. […]

[3] = target: human URAT1 (Homo sapiens (Human), UniProt Q96S37); assay: Inhibitory activity of uric acid transport with human URAT1 expressing cells; assay type: cell-based; details: COS-7; test compound 100 μM; 14C-labeled uric acid uptake in COS7 cells transiently expressing human URAT1
Chain of human URAT1 (Q96S37 whole entry): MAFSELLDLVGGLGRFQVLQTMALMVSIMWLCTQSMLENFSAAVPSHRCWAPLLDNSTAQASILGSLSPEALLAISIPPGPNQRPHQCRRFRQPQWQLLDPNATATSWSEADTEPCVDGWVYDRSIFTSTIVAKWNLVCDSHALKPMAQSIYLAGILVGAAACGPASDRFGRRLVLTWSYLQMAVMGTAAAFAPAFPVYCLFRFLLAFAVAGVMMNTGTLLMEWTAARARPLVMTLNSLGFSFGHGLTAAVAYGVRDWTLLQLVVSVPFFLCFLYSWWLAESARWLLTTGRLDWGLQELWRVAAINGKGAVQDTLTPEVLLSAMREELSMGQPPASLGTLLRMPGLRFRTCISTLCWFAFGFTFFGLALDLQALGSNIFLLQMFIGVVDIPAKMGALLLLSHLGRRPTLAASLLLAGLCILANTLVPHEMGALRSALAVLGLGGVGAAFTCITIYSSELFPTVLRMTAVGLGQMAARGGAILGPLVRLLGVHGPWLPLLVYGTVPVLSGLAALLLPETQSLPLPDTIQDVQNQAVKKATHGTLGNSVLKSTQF
Protocol: (1) Preparation of Transiently Human URAT1 Expressing Cells
Full length human URAT1 cDNA (NCBI Accession No. NM_144585) was subcloned into expression vector, pcDNA3.1 (Invitrogen). Human URAT1 expression vector was transfected into COS7 cells (RIKEN CELL BANK RCB0539) using Lipofectamine 2000 (Invitrogen). COS7 cells were cultured in collagen-coated 24 well plates (Asahi Techno Glass) at 2×10^5/well in D-MEM culture medium (Invitrogen) containing 10% fetal bovine serum (Sanko Junyaku) for 2 hours at 37° C. under the condition of 5% CO2. For 1 well, 2 μL of Lipofectamine 2000 was diluted in 50 μL of OPTI-MEM (Invitrogen) and allowed to stand at room temperature for 7 minutes (hereinafter referred to as Lipo2000-OPTI). For 1 well, 0.8 μg of human URAT1 expression vector was diluted in 50 μL of OPTI-MEM (Invitrogen) and combined gently with Lipo2000-OPTI. After standing at room temperature for 25 minutes, the mixture was added to COS7 cells at 100 μL/well. Furthermore, COS7 cells were cultured for 2 days at 37° C. under the condition of 5% CO2 and used for measuring inhibitory activity on the uptake.
(2) Preparation of Test Compounds
Test compounds were dissolved in DMSO (Wako) at 10 mM concentration and then diluted to 2 times higher concentration than intended with pre-treatment buffer (125 mM sodium gluconate, 4.8 mM potassium gluconate, 1.2 mM potassium dihydrogen phosphate, 1.2 mM magnesium sulfate, 1.3 mM calcium gluconate, 5.6 mM glucose, 25 mM Hepes, pH 7.4). Pre-treatment buffer without test compounds was used for control. […]
All tests were performed on hot-plate at 37° C. […] After mixing, the radioactivity was counted in a liquid scintillation counter (PerkinElmer). The radioactivity in COST cells not transfected with URAT1 expression vector was also counted under the same condition as control. […] Percent inhibition (%)=[1−(B−C)/(A−C)]×100 A: Radioactivity in control B: Radioactivity in the case of addition of test compounds C: Radioactivity in COST cells not transfected with URAT1 expression vector

[4] = tested on: serum uric acid; assay: Serum hypouricemic effect; assay type: in vivo; details: 1 mg/kg oral, male CD (SD) IGS rats, 2 hours after administration
Protocol: (1) Method for Measurement
Test compounds at 1 mg/kg suspended in 0.5% methylcellulose solution were administered orally to overnight fasted male CD (SD) IGS rats (5-week-old, Charls River Japan). At 2 hours after administration, blood was collected under ether anesthesia from abdominal aorta, and serum was separated according to general method. Serum uric acid values were determined by use of uric acid measurement kit (Uric acid C-Test Wako: Wako), and percent decrease in uric acid was calculated according to the formula described below. Percent decrease in uric acid (%)=(Serum uric acid values in control animals−Serum uric acid values in animals administered test compounds)×100/Serum uric acid values in control animals (2) Results

Chain of Xanthine oxidase (from bovine milk, Sigma) (P80457 whole entry): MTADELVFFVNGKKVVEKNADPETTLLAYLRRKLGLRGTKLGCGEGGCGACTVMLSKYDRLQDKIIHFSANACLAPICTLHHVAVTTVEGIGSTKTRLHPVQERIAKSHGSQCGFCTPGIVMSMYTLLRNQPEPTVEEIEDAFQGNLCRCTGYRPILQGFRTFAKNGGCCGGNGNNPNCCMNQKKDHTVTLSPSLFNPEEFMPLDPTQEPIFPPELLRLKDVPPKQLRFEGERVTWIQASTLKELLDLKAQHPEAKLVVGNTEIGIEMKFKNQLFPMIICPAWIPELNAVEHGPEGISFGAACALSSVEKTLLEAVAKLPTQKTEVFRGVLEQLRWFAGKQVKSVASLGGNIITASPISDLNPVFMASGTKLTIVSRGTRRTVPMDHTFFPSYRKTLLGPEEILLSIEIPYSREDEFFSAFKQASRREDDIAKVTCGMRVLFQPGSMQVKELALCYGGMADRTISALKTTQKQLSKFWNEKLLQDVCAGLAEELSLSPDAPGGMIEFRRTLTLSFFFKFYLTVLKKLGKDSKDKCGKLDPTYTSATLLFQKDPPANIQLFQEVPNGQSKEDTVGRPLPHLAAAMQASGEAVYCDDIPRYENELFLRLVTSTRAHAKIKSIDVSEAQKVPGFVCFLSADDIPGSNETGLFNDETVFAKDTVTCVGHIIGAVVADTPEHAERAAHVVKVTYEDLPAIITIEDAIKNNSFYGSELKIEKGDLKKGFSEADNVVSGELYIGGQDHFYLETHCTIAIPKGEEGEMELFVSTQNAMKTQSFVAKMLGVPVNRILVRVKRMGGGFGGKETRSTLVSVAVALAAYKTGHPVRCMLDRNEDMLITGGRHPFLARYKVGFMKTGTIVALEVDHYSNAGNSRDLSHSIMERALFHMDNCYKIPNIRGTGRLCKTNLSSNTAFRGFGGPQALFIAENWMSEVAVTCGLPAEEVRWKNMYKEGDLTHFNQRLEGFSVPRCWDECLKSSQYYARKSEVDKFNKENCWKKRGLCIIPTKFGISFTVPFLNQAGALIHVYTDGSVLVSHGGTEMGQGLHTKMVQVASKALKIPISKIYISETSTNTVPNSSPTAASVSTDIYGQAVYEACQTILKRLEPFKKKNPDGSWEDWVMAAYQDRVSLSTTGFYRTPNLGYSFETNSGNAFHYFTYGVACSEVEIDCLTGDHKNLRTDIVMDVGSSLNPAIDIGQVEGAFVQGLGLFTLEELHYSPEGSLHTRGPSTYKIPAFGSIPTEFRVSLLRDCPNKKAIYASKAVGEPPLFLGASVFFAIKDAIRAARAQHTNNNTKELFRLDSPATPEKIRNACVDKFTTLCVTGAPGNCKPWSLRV

| Structure (SMILES) | IC50 ([1]; 0.02 units/mL, xanthine 200 μM, 10 minutes at room temperature) [nM] | inhibition at 100 µM [3] [%] | IC50 ([1]; 100 μM xanthine final) [nM] | inhibition % [2] [%] | Percent decrease in uric acid (hypouricemic effect) [4] |
| --- | --- | --- | --- | --- | --- |
| N#Cc1cn(-c2cc(C(=O)O)ccn2)cc1-c1ccccc1 [Example 20, 2-(3-Cyano-4-phenylpyrrole-1-yl)isonicotinic acid] | 52.1 | 77 | – | >90 | – |
| N#Cc1cn(-c2ccc(C(=O)O)c(O)c2)cc1-c1ccccc1 [Example 301] | – | – | 6.2 | – | over 50% |
| N#Cc1cn(-c2ccc(C(=O)O)c(O)c2)cc1-c1cccs1 [Example 306] | – | 91 | 7.8 | >90 | – |

The remaining compounds from weak to strong by IC50 ([1]; 100 μM xanthine final), led by results:

| IC50 ([1]; 0.02 units/mL, xanthine 200 μM, 10 minutes at room temperature) [nM] | inhibition at 100 µM [3] [%] | IC50 ([1]; 100 μM xanthine final) [nM] | Structure (SMILES) | inhibition % [2] [%] | Percent decrease in uric acid (hypouricemic effect) [4] |
| --- | --- | --- | --- | --- | --- |
| – | – | 5.2 | N#Cc1cn(-c2ccc(C(=O)O)c(O)c2)cc1-c1ccsc1 [Example 314] | – | over 50% |
| – | 89 | 3.3 | CCCCc1cn(-c2ccc(C(=O)O)c(O)c2)cc1C#N [Example 355] | >90 | – |
